Laboratory results reported in patent US8563730B2, “Pyrazole and fused pyrazole glucokinase activators” (Takeda San Diego, Inc., priority 2008, dated 2013).
Where a name gives a salt, the structure may show the parent alone. Read-outs that look alike come from different tables or passages of the source.

Molecular target: T1, GK (glucokinase, residues 12-465) (Homo sapiens, UniProt P35557)
T1 construct: I.D. No. 1 corresponds to residues 12-465 of glucokinase; made in house; host or cells: DH10b-T1r E. coli
T1 sequence (P35557 with tags, fused parts or gaps isoform P35557-2): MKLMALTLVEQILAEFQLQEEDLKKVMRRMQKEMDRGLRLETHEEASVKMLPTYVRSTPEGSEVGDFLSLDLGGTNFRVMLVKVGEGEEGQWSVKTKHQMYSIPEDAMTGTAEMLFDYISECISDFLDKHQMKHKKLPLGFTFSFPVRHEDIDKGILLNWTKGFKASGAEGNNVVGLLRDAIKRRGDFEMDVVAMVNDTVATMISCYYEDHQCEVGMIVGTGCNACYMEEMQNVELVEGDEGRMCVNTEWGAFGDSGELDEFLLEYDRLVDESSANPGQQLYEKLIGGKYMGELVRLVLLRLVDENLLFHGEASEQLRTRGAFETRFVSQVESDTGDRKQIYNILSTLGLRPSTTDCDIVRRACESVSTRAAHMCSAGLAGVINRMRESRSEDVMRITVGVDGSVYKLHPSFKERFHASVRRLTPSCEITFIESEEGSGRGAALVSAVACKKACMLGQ
Assay: enzymatic glucokinase activity assay (ATP consumption, KinaseGlo luminescence)
Type: biochemical
Conditions: 5 μM ATP, 5 mM Glucose, reported as bins; for EC50: read-out: pKact
Excerpt: The activity of compounds as glucokinase activators may be assayed in vitro, in vivo or in a cell line. Provided below is an enzymatic glucokinase activity assay.
Purified glucokinase may be obtained as follows. […] SEQ.
The expression of recombinant glucokinase protein may be carried out by transformation and growth of DH10b-T1r E. coli cells incorporating the (pFLAG-CTC) plasmid in LB media. Protein expression can be induced in this system by the addition of IPTG to the culture medium.
Recombinant protein may be isolated from cellular extracts by passage over Sepharose Q Fast Flow resin (Pharmacia). This partially purified GK extract may then be further purified by a second passage over Poros HQ10 (Applied Biosystems). The purity of GK may be determined on denaturing SDS-PAGE gel. Purified GK may then be concentrated to a final concentration of 20.0 mg/ml. After flash freezing in liquid nitrogen, the proteins can be stored at −78° C. in a buffer containing 25 mM TRIS-HCl pH 7.6, 50 mM NaCl, and 0.5 mM TCEP.
The activation properties of compounds for GK may be determined using a black 384-well-plate format under the following reaction conditions: 25 mM Hepes pH 7.2, 25 mM NaCl, 10 mM MgCl2, 0.01% Brij35, 1 mM DTT, 5 μM ATP, 5 mM Glucose 2% DMSO. The amount of ATP consumed may be determined quantitatively by addition of equal volume of luciferase reagent (luciferase+beetle luciferin—KinaseGlo Luminescent Kinase Assay kit from Promega). The luminescence intensity may be measured by using the Analyst HT from LJL Biosystems.
The reaction mixture may then be incubated at room temperature for 60 min, and quenched and developed by addition of 10 μL of luciferase reagent. Luminescence intensities of the resulting reaction mixtures may be measured after a 10 min incubation at room temperature. The luminescence intensity may be measured by using the Analyst HT from LJL Biosystems.
pKact and % ACTmax values may be calculated by non-linear curve fitting of the compound concentrations and luminescence intensities to a standard inhibition/activation equation.

[1] = Kact = concentration that displays 50% of the maximal increase in GK activity, 60 min, room temperature
[2] = calculated maximal gain in GK enzyme activity at a saturating concentration of the compound, read-out: % ACTmax
[3] = read-out: % ACTmax, calculated maximal gain in GK enzyme activity at a saturating concentration of the compound
[4] = calculated maximal gain in GK enzyme activity at a saturating concentration of the compound

EC50 [1] | Emax [2] | Structure (SMILES) | Emax [3] | % ACTmax [4] | pKact [1]
1.58 to 3.16 µM | ≥ 111% | O=C(Nc1ncc(Cl)s1)C(CC1CCOCC1)n1ncc2cc(S(=O)(=O)C3CC3)ccc21 (racemic) [Compound 10, N-(5-chlorothiazol-2-yl)-2-(5-(cyclopropylsulfonyl)-1H-indazol-1-yl)-3-(tetrahydro-2H-pyran-4-yl)propanamide] |  |  | 
0.398 to 1.26 µM | 90 to 100% | COc1ccc2c(cnn2C(CC2CCOCC2)C(=O)Nc2ccn(C)n2)c1S(=O)(=O)C1CC1 (racemic) [Compound 15, 2-(4-(cyclopropylsulfonyl)-5-methoxy-1H-indazol-1-yl)-N-(1-methyl-1H-pyrazol-3-yl)-3-(tetrahydro-2H-pyran-4-yl)propanamide] |  |  | 
1.58 to 3.16 µM | ≥ 111% | O=C(Nc1ncc(F)s1)[C@@H](CC1CCOCC1)n1cc(S(=O)(=O)C2CCCC2)cn1 (single isomer, unassigned) [Compound 37, 2-(4-(cyclopentylsulfonyl)-1H-pyrazol-1-yl)-N-(5-fluorothiazol-2-yl)-3-(tetrahydro-2H-pyran-4-yl)propanamide] |  |  | 
≥ 15.8 µM | ≤ 90% | COc1ccc2nc(NC(=O)[C@H](CC3CCOCC3)n3ccc(S(=O)(=O)C4CC4)n3)sc2n1 [Compound 2, (S)-2-(3-(cyclopropylsulfonyl)-1H-pyrazol-1-yl)-N-(5-methoxythiazolo[5,4-b]pyridin-2-yl)-3-(tetrahydro-2H-pyran-4-yl)propanamide] |  |  | 
≥ 15.8 µM | ≤ 90% | COc1ccc2nc(NC(=O)[C@@H](CC3CCOCC3)n3ccc(S(=O)(=O)C4CC4)n3)sc2n1 [Compound 3, (R)-2-(3-(cyclopropylsulfonyl)-1H-pyrazol-1-yl)-N-(5-methoxythiazolo[5,4-b]pyridin-2-yl)-3-(tetrahydro-2H-pyran-4-yl)propanamide] |  |  | 
3.98 to 12.6 µM | ≥ 111% | COC(=O)c1cnc(NC(=O)C(CC2CCCC2)n2cc(S(=O)(=O)C3CC3)cn2)s1 (centres unmarked) [Compound 6, Methyl 2-(3-cyclopentyl-2-(4-(cyclopropylsulfonyl)-1H-pyrazol-1-yl)propanamido)thiazole-5-carboxylate] |  |  | 
3.98 to 12.6 µM | ≤ 90% | O=C(O)c1cnc(NC(=O)C(CC2CCCC2)n2cc(S(=O)(=O)C3CC3)cn2)s1 (centres unmarked) [Compound 7, 2-(3-cyclopentyl-2-(4-(cyclopropylsulfonyl)-1H-pyrazol-1-yl)propanamido)thiazole-5-carboxylic Acid] |  |  | 
≤ 0.316 µM | 101 to 105% | O=C1CC[C@H](CC(C(=O)Nc2ncc(Cl)s2)n2ncc3c(S(=O)(=O)C4CC4)cccc32)C1 (stereo partly drawn) [Compound 11, N-(5-chlorothiazol-2-yl)-2-(4-(cyclopropylsulfonyl)-1H-indazol-1-yl)-3-((R)-3-oxocyclopentyl)propanamide] |  |  | 
1.58 to 3.16 µM | ≤ 90% | Cn1ccc(NC(=O)C(CC2CCOCC2)n2ncc3c(S(=O)(=O)C4CC4)cc(OC(F)F)cc32)n1 (centres unmarked) [Compound 12, 2-(4-(cyclopropylsulfonyl)-6-(difluoromethoxy)-1H-indazol-1-yl)-N-(1-methyl-1H-pyrazol-3-yl)-3-(tetrahydro-2H-pyran-4-yl)propanamide] |  |  | 
≤ 0.316 µM | ≤ 90% | Cn1ccc(NC(=O)C(CC2CCOCC2)n2ncc3c(S(=O)(=O)C4CC4)cc(C#N)cc32)n1 (centres unmarked) [Compound 19, 2-(6-cyano-4-(cyclopropylsulfonyl)-1H-indazol-1-yl)-N-(1-methyl-1H-pyrazol-3-yl)-3-(tetrahydro-2H-pyran-4-yl) propanamide] |  |  | 
≤ 0.316 µM | ≥ 111% | O=C(Nc1ncc(F)s1)C(CC1CCOCC1)n1ncc2c(S(=O)(=O)C3CC3)c(Cl)ccc21 (centres unmarked) [Compound 22, 2-(5-chloro-4-(cyclopropylsulfonyl)-1H-indazol-1-yl)-N-(5-fluorothiazol-2-yl)-3-(tetrahydro-2H-pyran-4-yl)propanamide] |  |  | 
 |  | O=C(Nc1ncc(F)s1)C(CC1CCOCC1)n1ncc2c(S(=O)(=O)C3CC3)ccc(Cl)c21 (centres unmarked) [Compound 23, 2-(7-chloro-4-(cyclopropylsulfonyl)-1H-indazol-1-yl)-N-(5-flourothiazol-2-yl)-3-(tetrahydro-2H-pyran-4-yl)propanamide] |  | ≧111% | ≧6.5

Structure (SMILES) | EC50 [1] | Emax [2] | Emax [3] | % ACTmax [4] | pKact [1]
O=C(Nc1cnccn1)C(CC1CCOCC1)n1ncc2c(S(=O)(=O)C3CC3)cncc21 (centres unmarked) [20 (Free Base), 2-(4-(cyclopropylsulfonyl)-1H-pyrazolo[3,4-c]pyridin-1-yl)-N-(pyrazin-2-yl)-3-(tetrahydro-2H-pyran-4-yl)propanamide] | 0.398 to 1.26 µM |  | 101 to 105% |  | 
O=C(Nc1cnccn1)C(CC1CCOCC1)n1ncc2c(S(=O)(=O)C3CC3)cncc21 (centres unmarked) [20 (TFA Salt), 2-(4-(cyclopropylsulfonyl)-1H-pyrazolo[3,4-c]pyridin-1-yl)-N-(pyrazin-2-yl)-3-(tetrahydro-2H-pyran-4-yl)propanamide] | 1.58 to 3.16 µM |  |  | 106-110% | 
COc1ccc2nc(NC(=O)C(CC3CCOCC3)n3ccc(S(=O)(=O)C4CC4)n3)sc2n1 (centres unmarked) [Compound 1, 2-(3-(cyclopropylsulfonyl)-1H-pyrazol-1-yl)-N-(5-methoxythiazolo[5,4-b]pyridin-2-yl)-3-(tetrahydro-2H-pyran-4-yl)propanamide] | ≥ 15.8 µM |  | ≤ 90% |  | 
O=C(Nc1ncc(Cl)s1)C(CC1CCOCC1)n1cc(S(=O)(=O)C2CC2)cn1 (centres unmarked) [Compound 4, N-(5-chlorothiazol-2-yl)-2-(4-(cyclopropylsulfonyl)-1H-pyrazol-1-yl)-3-(tetrahydro-2H-pyran-4-yl)propanamide] | 3.98 to 12.6 µM |  | 101 to 105% |  | 
O=C(Nc1ncc(Cl)s1)C(CC1CCOCC1)n1cc(S(=O)(=O)C2CCCC2)cn1 (centres unmarked) [Compound 5, N-(5-chlorothiazol-2-yl)-2-(4-(cyclopentylsulfonyl)-1H-pyrazol-1-yl)-3-(tetrahydro-2H-pyran-4-yl)propanamide] | 0.398 to 1.26 µM |  | ≥ 111% |  | 
O=C(NC1CC1)c1nn(C(CC2CCOCC2)C(=O)Nc2ncc(Cl)s2)cc1Cl (centres unmarked) [Compound 8, 4-chloro-1-(1-(5-chlorothiazol-2-ylamino)-1-oxo-3-(tetrahydro-2H-pyran-4-yl)propan-2-yl)-N-cyclopropyl-1H-pyrazole-3-carboxamide] | 3.98 to 12.6 µM |  | ≤ 90% |  | 
O=C(Nc1ncc(Cl)s1)C(CC1CCOCC1)n1cc(NS(=O)(=O)C2CC2)cn1 (centres unmarked) [Compound 9, N-(5-chlorothiazol-2-yl)-2-(4-(cyclopropanesulfonamido)-1H-pyrazol-1-yl)-3-(tetrahydro-2H-pyran-4-yl)propanamide] | 3.98 to 12.6 µM |  | ≤ 90% |  | 
O=C(Nc1ncc(F)s1)C(CC1CCOCC1)n1ncc2c(S(=O)(=O)C3CC3)cncc21 (centres unmarked) [Compound 13, 2-(4-(cyclopropylsulfonyl)-1H-pyrazolo[3,4-c]pyridin-1-yl)-N-(5-fluorothiazol-2-yl)-3-(tetrahydro-2H-pyran-4-yl)propanamide] | ≤ 0.316 µM |  | 106 to 110% |  | 
NC(=O)c1ccc(NC(=O)C(CC2CCOCC2)n2ncc3c(S(=O)(=O)C4CC4)cccc32)nc1 (centres unmarked) [Compound 14, 6-(2-(4-(cyclopropylsulfonyl)-1H-indazol-1-yl)-3-(tetrahydro-2H-pyran-4-yl)propanamido)nicotinamide] | ≤ 0.316 µM | ≥ 111% |  |  | 
Nc1cc(S(=O)(=O)C2CC2)c2cnn(C(CC3CCOCC3)C(=O)Nc3ncc(F)s3)c2n1 (centres unmarked) [Compound 16, 2-(6-amino-4-(cyclopropylsulfonyl)-1H-pyrazolo[3,4-b]pyridin-1-yl)-N-(5-fluorothiazol-2-yl)-3-(tetrahydro-2H-pyran-4-yl)propanamide] | ≤ 0.316 µM |  | 106 to 110% |  | 
